29 compounds from US8609663B2, “Compounds for modulating TLR2” (priority 2009, dated 2013) can be followed below.

The test system of data set [1] is LCMV-induced NF-κB activity. The data set is described as follows: cells. The following applies: for IC50: Homo sapiens, HEK293, read-out: 50% Inhibitory Dose. It counts as cell-based, human.
Data set [2] concerns HSV-induced NF-κB activation. The data set is described as follows: HSV-induced NF-κB luciferase assay in SZ10 cells. Format: cell-based, human. The following applies: HSV-1 7134R.
Data set [3] concerns LCMV-induced IL-8 production. Format: cell-based, human.
Data set [4] deals with LCMV. It counts as cell-based, lymphocytic choriomeningitis virus (LCMV). As to conditions: 3.3 μM.
Data set [5] in a line: Preliminary toxicity observation in mice. The following applies: injected intravenously at 16.67 mg/kg (200 μg/mouse).
The subject of a further data set is HLA-ABC. Format: cell-based, human.
A further data set has as its system Tacaribe virus (TCRV). Format: cell-based.
The subject of data set [6] is Pam2CSK4 (TLR2 ligand) and LPS (TLR4 ligand) induced cytokine production. More on the design: species or system C57BL/6 mice. As to conditions: mouse.
Data set [7] concerns LCMV-Arm. It counts as cell-based, lymphocytic choriomeningitis virus (LCMV).
In the next data set the test system is TLR2. It counts as cell-based, human.
The subject of data set [8] is cytokine responses in mouse primary macrophages. Format: cell-based.
For data set [9], the system named is TNF-α-induced IL-8 production. It counts as cell-based, human.
Data set [10] concerns LCMV. It counts as cell-based, lymphocytic choriomeningitis virus (LCMV).
In data set [11] the test system is TNF-α-induced NF-κB activity. It counts as cell-based, human.
In data set [12] the test system is IL-8 production in primary human monocytes. It counts as cell-based.
In data set [13] the test system is Rift Valley Fever Virus (RVFV). Format: cell-based.
In data set [14] the test system is LCMV-Arm. Format: in vivo, C57BL/6 mice.
A further data set deals with HSV-1. Nature of the data set: HSV-1 (VP16-GFP strain) replication in Vero cells, GFP fluorescence. As to conditions: 24 hours, dose-dependent manner. It counts as cell-based, Herpes simplex virus 1 (HSV-1).

Entries after “also recorded” stand apart in the source; their conditions may differ.

With `O=C(/C=C/c1ccc(O)c(O)c1)OCCc1ccccc1` [CAPE, reference compound], the “LCMV-induced NF-κB activation” value in [1] was “effectively blocked”.
Regarding `CC1CCN(Cc2ccc(NC(=O)NCc3noc4ccccc34)cc2)CC1` [Compound 100], the “HSV-induced NF-κB activation” value in [2] is on record as “Blocks”. For the same compound, the “LCMV-induced IL-8 production” value in data set [3] was “dramatically inhibited”. Moreover, the “LCMV replication in Vero cells” value in the data set on LCMV [4] was “significantly inhibited”. Moreover, in [5], the “toxic effect in mice” value is reported as “no apparent toxic effect”. In addition, the “expression of HLA-ABC” value in the data set with HLA-ABC is on record as “did not affect; also recorded: not affected”. Also, the “replication and production of TCRV” value with Tacaribe virus (TCRV) is listed as “can inhibit”. Further, in data set [6], the “LPS induced IL-6 induction in vivo” value is “inhibits” and the “Pam2CSK4 induced IL-6 induction in vivo” value is “inhibits”. In data set [6] (in vivo, iv), the “LPS induced IL-6 production in serum” value is on record as “significantly blocked”, the “LPS induced MCP-1 production in serum” value is “significantly blocked”, the “LPS-induced RANTES production in serum” value was “did not affect” and the “Pam2CSK4-induced RANTES production in serum” value is “did not affect”. In data set [6] (in vivo, iv), the “Pam2CSK4 induced IL-6 production in serum” value is given as “significantly blocked” and the “Pam2CSK4 induced MCP-1 production in serum” value is listed as “significantly blocked”. Moreover, the “LCMV replication in BHK-21 cells” value with LCMV-Arm [7] is “inhibited”. In the data set on TLR2, the “LCMV-induced enhanced expression of TLR2” value is reported as “specifically prevented” and the “TNF-α-induced expression of TLR2” value is “did not affect”. In data set [8], the “HSV-1 induced MCP-1 production” value is recorded as “efficiently blocked”, the “HSV-1 induced RANTES production” value is listed as “efficiently blocked”, the “LCMV induced production of MCP-1” value was “significantly inhibited” and the “LCMV induced production of RANTES” value is on record as “significantly inhibited”. In addition, in [8], the “LPS induced MCP-1 production” value is “inhibited”, the “Pam2CSK4 induced MCP-1 production” value is recorded as “inhibited”, the “Pam2CSK4 induced RANTES in vitro in macrophages” value was “inhibit” and the “poly IC induced production of MCP-1” value is on record as “did not affect”. For the same compound, the “poly IC induced production of RANTES” value in data set [8] is listed as “did not affect”. For the same compound, in data set [9], the “TNF-α-induced IL-8 production” value is listed as “did not affect”. Also, in the data set on LCMV [10], the “LCMV replication (expression of LCMV-NP) in SZ10 cells” value was “significantly inhibited; also recorded: dramatically inhibited” and the “LCMV replication in HEK cells that did not express TLR2” value is on record as “could also inhibit”. In data set [11], the “TNF-α-induced NF-κB activity” value is “did not affect”. For the same compound, in data set [12], the “LCMV induced IL-8 production” value was “significant (p<0,01 by two-tailed Student's t test) reduction”, the “poly IC induced production of IL-8” value is recorded as “did not affect” and the “recombinant human TNF-α induced production of IL-8” value is listed as “did not affect”. Also, in data set [1], the % Inhibition (commonly how much of the control response was suppressed) turned out to be 80%; the “LCMV-induced NF-κB activity” value is “dramatically inhibited”; the “LCMV-induced NF-κB activity and cytokine response” value is “specifically inhibit”; the IC50 was 1000 nM. For the same compound, in data set [13], the “activity against RVFV” value is listed as “no role”. Also, the “levels of virus in the spleen” value in the data set on LCMV-Arm [14] (48 h post-infection, n=8, p<0.05 vs DMSO-treated or untreated mice) is given as “significantly lower”. Besides, the “LCMV-induced inflammation in a mouse model” value in the data set on LCMV-Arm [14] (Example 13, i.v. 16.67 mg/kg (200 μg/mouse), serum MCP-1) was “Inhibits”. For the same compound, the “LCMV induced MCP-1 production in serum” value in the data set on LCMV-Arm [14] (single dose 400 μg/mouse (16 mg/kg), 18 h post-infection, vs DMSO) is reported as “significant decrease”. Further, the “LCMV induced type I IFN production” value in the data set on LCMV-Arm [14] (single dose 400 μg/mouse, 18 h post-infection) is on record as “did not affect”. In addition, in the data set on HSV-1, the HSV-1 replication entry is reported as “inhibits”.
For `Cc1ccc2onc(CNC(=O)Nc3ccc(CN4CCC(C)CC4)cc3)c2c1` [Compound 101], in [1], the “% Inhibition” value was 60% and the IC50 was 1600 nM.
For `Cc1ccc2onc(CNC(=O)Nc3cccc(C(F)(F)F)c3)c2c1` [Compound 102], in that order: 27% and more than 6600 nM.
For `O=C(NCc1noc2ccccc12)Nc1cccc(Cl)c1` [Compound 103], in that order: 26% and more than 6600 nM.
Consider `COc1cccc(NC(=O)NCc2noc3ccccc23)c1` [Compound 105], for which, in data set [1], the “% Inhibition” value was 20% and the IC50 was more than 6600 nM.
For the compound `COC(=O)c1ccc(NC(=O)NCc2noc3ccccc23)cc1` [Compound 106], in data set [1], the “% Inhibition” value was found to be 75% and the IC50 came to 1600 nM.
`CC1CCN(Cc2ccc(NC(=O)Nc3cccs3)cc2)CC1` [Compound 107]: in data set [1], the “% Inhibition” value is 47% and the IC50 came out at 3000 nM.
As for `CC1CCN(Cc2ccc(NC(=O)Nc3cn(C)c(=O)c4ccccc34)cc2)CC1` [Compound 108], in data set [1], the “% Inhibition” value amounted to 39% and the IC50 was more than 6600 nM.
`Cc1ccc2onc(CNC(=O)Nc3ccccc3N3CCN(C)CC3)c2c1` [Compound 109]: in data set [1], the “% Inhibition” value is given as 39% and the IC50 was more than 6600 nM.
Consider `O=C(NCCc1ccccc1)c1nnc(-c2cccnc2)o1` [Compound 110], for which, in [1], the “% Inhibition” value is on record as 40% and the IC50 was more than 6600 nM.
Consider `COc1cc(CCNC(=O)c2nnc(-c3cccnc3)o2)cc(OC)c1` [Compound 112], for which, in data set [1], the “% Inhibition” value is 65% and the IC50 turned out to be 400 nM.
Consider `CCc1ccc(CCNC(=O)c2nnc(-c3cccnc3)o2)cc1` [Compound 113], for which, in data set [1], the “% Inhibition” value is listed as 30% and the IC50 was more than 6600 nM.
As for `O=C(NCCc1ccc(O)cc1)c1nnc(-c2cccnc2)o1` [Compound 114], in data set [1], the “% Inhibition” value is given as 31% and the IC50 is more than 6600 nM.
The matching figures for `O=C(NCCc1ccc(O)c(O)c1)c1nnc(-c2cccnc2)o1` [Compound 115]: 40% and more than 6600 nM.
With `O=C(NCCc1ccc(-c2ccccc2)cc1)c1nnc(-c2cccnc2)o1` [Compound 116], in data set [1], the “% Inhibition” value stood at 50% and the IC50 stood at 800 nM.
`COc1ccc(CCC(C)NC(=O)c2nnc(-c3cccnc3)o2)cc1` (centres unmarked) [Compound 117]: in data set [1], the “% Inhibition” value amounted to 27% and the IC50 is more than 6600 nM.
The matching figures for `O=C(NCCc1cccc(Cl)c1)c1nnc(-c2cccnc2)o1` [Compound 118]: 50% and 3300 nM.
Consider `CCOc1ccc(CCNC(=O)c2nc(-c3cccnc3)no2)cc1` [Compound 120], for which, in data set [1], the “% Inhibition” value worked out at 75%; the “LCMV-induced NF-κB activity and cytokine response” value is given as “specifically inhibit”; the IC50 turned out to be 800 nM.
For `O=C(NCc1cccnc1)c1ccc(CSCc2cccc(F)c2)o1` [Compound 121], in data set [1], the “% Inhibition” value was 60%; the “LCMV-induced NF-κB activity and cytokine response” value is on record as “specifically inhibit”; the IC50 stood at 800 nM.
Turning to `O=C(COCc1cc(-c2ccco2)on1)Nc1cccnc1` [Compound 122], the “Pam2CSK4 induced RANTES in vitro in macrophages” value in data set [8] is on record as “inhibit”. In addition, in data set [1], the “% Inhibition” value stood at 50%; the “LCMV-induced NF-κB activity and cytokine response” value is “specifically inhibit”; the IC50 was 3300 nM.
Take `O=C(CCS(=O)(=O)c1nc(-c2ccc3c(c2)OCO3)cc(C(F)(F)F)n1)Nc1ccc(OC(F)(F)F)cc1` [Compound 125]: in [1], the “% Inhibition” value stood at 60%; the “LCMV-induced NF-κB activity and cytokine response” value is “specifically inhibit”; the IC50 came out at 800 nM.
The matching figures for `COc1ccc(C2C3=C(CCCC3=O)Nc3[nH]nc(-c4ccc(Cl)cc4)c32)cc1OC` (centres unmarked) [Compound 132]: 75%, “specifically inhibit” and 800 nM.
For `O=C1CC(c2ccc(F)cc2)CC2=C1C=Nc1ccccc1N2` (centres unmarked) [Compound 133], in that order: 60%, “specifically inhibit” and 800 nM.
Turning to `O=C(CN(C1=NC2CS(=O)(=O)CC2S1)c1ccc(F)cc1)Nc1ccccc1C(F)(F)F` (centres unmarked) [Compound 134], in data set [1], the “% Inhibition” value was determined as 50%; the “LCMV-induced NF-κB activity and cytokine response” value was “specifically inhibit”; the IC50 came to 1600 nM.
Consider `O=C(Nc1cccnc1)c1ccc(NC(=O)C2OCCc3ccccc32)cc1` (centres unmarked) [Compound 135], for which, in [1], the “% Inhibition” value stood at 60%; the “LCMV-induced NF-κB activity and cytokine response” value is recorded as “specifically inhibit”; the IC50 came out at 800 nM.
Regarding `COc1cc(/C=C/C(=O)CC(=O)/C=C/c2ccc(O)c(OC)c2)ccc1O` [Curcumin, reference compound], the “LCMV-induced NF-κB activation” value in data set [1] is “effectively blocked”.
On the same count and under the same terms, the value for `C=C1C(=O)O[C@@H]2C[C@@H](C)[C@@H]3C=CC(=O)[C@@]3(C)[C@@H](O)[C@H]12` [Helenalin, reference compound] was “effectively blocked”.
The same measure, in the same setting: the value for `CC(C)[C@]12O[C@H]1[C@@H]1O[C@]13[C@]1(O[C@H]1C[C@H]1C4=C(CC[C@@]13C)C(=O)OC4)[C@@H]2O` [Triptolide, reference compound] was “effectively blocked”.
